Laboratory results: ChEMBL document CHEMBL5291721, “A preclinical secondary pharmacology resource illuminates target-adverse drug reaction associations of marketed drugs” (Nat Commun, 2023)

Tests used:
[1] = molecular target: T1, 5-hydroxytryptamine receptor 3A (Homo sapiens, UniProt P46098); format: functional
T1 sequence (P46098 whole entry): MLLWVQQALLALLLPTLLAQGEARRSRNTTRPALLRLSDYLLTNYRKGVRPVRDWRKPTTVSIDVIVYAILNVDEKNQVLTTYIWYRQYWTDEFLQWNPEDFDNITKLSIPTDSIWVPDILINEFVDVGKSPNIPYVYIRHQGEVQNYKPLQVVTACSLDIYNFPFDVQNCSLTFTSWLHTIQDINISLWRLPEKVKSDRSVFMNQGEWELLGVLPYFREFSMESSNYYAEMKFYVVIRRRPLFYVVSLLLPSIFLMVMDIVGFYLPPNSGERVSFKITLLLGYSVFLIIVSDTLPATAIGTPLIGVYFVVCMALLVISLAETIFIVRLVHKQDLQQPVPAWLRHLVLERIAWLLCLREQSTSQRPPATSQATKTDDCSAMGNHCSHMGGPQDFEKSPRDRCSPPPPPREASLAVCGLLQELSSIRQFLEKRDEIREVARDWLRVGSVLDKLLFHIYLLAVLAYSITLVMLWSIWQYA

[2] = molecular target: 5-hydroxytryptamine receptor 2B (Homo sapiens, UniProt P41595); format: functional, cell-based
Sequence of 5-hydroxytryptamine receptor 2B (P41595 whole entry): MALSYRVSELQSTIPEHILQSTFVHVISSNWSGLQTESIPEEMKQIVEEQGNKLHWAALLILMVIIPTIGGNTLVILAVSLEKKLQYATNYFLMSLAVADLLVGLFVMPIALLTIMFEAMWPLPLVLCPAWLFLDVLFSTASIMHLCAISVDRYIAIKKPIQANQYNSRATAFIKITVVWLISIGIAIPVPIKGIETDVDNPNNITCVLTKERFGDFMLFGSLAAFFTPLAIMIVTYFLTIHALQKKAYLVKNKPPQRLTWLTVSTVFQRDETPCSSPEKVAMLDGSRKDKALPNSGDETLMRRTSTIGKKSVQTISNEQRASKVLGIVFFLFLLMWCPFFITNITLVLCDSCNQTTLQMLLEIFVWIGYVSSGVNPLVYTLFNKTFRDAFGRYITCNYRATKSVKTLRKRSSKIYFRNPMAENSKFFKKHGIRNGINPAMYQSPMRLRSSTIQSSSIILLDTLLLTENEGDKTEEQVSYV

[3] = molecular target: T2, 5-hydroxytryptamine receptor 1A (Homo sapiens, UniProt P08908); format: functional, cell-based
T2 sequence (P08908 whole entry): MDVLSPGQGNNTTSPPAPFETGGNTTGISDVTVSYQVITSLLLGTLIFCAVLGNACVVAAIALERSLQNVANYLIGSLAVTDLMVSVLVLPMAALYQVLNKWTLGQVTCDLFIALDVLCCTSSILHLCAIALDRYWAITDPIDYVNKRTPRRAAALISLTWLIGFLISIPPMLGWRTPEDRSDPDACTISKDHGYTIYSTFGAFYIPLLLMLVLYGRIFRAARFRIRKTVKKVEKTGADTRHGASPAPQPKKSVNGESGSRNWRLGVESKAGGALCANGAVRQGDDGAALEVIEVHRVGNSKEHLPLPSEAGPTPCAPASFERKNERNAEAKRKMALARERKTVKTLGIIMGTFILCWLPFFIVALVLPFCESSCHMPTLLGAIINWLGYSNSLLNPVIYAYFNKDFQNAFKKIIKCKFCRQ

[4] = molecular target: Glutamate receptor ionotropic, NMDA 1 (Rattus norvegicus, UniProt P35439)
[5] = molecular target: T3, Alpha-1A adrenergic receptor (Homo sapiens, UniProt P35348)
T3 sequence (P35348 whole entry): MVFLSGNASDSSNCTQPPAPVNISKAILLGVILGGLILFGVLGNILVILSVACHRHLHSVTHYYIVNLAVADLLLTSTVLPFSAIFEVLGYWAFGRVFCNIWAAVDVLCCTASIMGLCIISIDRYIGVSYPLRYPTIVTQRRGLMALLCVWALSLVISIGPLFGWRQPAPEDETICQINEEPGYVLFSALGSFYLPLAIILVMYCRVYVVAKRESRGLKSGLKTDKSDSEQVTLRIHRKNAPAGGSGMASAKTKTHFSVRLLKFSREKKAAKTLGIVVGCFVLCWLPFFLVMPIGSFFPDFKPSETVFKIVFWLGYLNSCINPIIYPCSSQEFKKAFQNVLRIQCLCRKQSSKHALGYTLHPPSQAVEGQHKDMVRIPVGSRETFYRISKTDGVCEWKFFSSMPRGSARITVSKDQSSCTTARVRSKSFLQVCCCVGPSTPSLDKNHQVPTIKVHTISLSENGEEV

[6] = molecular target: T4, Type-1 angiotensin II receptor (Homo sapiens, UniProt P30556)
T4 sequence (P30556 whole entry): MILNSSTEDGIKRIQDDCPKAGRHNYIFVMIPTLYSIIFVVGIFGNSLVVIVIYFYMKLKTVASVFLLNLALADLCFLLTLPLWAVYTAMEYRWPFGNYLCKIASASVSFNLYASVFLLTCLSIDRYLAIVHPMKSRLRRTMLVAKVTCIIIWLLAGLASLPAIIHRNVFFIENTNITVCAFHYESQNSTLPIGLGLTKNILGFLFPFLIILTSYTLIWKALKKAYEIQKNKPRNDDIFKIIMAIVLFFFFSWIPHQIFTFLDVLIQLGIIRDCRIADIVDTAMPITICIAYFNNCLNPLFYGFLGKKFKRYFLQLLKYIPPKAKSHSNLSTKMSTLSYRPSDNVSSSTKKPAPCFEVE

[7] = molecular target: Neuronal acetylcholine receptor subunit alpha-4 (Homo sapiens, UniProt P43681)
Sequence of Neuronal acetylcholine receptor subunit alpha-4 (P43681 whole entry): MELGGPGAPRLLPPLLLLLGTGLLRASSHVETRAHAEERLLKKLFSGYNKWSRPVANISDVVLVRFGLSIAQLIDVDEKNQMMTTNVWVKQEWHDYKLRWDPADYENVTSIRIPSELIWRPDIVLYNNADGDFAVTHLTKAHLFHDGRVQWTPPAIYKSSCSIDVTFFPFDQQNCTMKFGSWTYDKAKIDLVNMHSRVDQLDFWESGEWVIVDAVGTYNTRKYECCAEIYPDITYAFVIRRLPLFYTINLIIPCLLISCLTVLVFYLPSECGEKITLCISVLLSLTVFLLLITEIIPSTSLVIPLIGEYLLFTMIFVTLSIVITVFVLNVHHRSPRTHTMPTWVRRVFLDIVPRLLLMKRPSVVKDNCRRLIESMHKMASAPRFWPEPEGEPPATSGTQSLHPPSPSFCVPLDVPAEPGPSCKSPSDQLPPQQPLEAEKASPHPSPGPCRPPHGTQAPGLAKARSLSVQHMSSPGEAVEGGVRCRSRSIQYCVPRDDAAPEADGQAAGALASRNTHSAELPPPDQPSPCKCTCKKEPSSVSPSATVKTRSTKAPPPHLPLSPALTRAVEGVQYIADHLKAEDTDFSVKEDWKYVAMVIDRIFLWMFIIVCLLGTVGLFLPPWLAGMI

Histamine H2 receptor = Histamine H2 receptor (Homo sapiens, UniProt P25021); format: functional, cell-based
Sequence of Histamine H2 receptor (P25021 whole entry): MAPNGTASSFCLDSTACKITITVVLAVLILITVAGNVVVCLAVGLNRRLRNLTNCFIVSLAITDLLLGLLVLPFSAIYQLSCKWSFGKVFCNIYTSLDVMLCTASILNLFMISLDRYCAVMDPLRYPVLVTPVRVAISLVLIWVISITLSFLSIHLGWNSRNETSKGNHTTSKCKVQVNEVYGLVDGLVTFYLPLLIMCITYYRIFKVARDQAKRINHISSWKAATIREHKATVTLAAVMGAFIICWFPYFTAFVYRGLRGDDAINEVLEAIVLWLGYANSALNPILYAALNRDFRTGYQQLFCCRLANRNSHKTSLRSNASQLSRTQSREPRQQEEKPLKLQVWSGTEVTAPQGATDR

Cannabinoid receptor 1 = Cannabinoid receptor 1 (Homo sapiens, UniProt P21554); format: functional, cell-based
Sequence of Cannabinoid receptor 1 (P21554 whole entry): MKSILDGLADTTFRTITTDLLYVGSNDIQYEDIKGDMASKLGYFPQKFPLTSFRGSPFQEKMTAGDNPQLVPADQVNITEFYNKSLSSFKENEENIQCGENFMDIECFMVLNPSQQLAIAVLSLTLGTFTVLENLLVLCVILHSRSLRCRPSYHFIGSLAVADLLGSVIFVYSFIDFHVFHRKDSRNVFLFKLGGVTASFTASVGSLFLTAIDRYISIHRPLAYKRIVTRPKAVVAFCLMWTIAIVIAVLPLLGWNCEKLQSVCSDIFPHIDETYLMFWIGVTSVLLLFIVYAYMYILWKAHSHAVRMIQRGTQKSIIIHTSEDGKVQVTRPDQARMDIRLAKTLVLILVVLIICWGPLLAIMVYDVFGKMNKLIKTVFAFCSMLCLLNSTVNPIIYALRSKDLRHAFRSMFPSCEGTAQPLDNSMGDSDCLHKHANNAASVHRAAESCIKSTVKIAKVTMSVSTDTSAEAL
Further: assay procedure not described here.

Row | Compound | AC50 [1] | AC50 [2] | AC50 [3] | AC50 [4] | AC50 [5] | AC50 [6] | AC50 [7] | AC50 (Histamine H2 receptor) | AC50 (Cannabinoid receptor 1)
1 | C[N+]1(C)CCC(=C(c2ccccc2)c2ccccc2)CC1 | 6.1 µM | 29 µM | > 10 µM | > 10 µM | > 10 µM | > 10 µM | 16.2 µM | > 10 µM | –
2 | CN(C)Cc1nnc2n1-c1ccc(Cl)cc1C(c1ccccc1)=NC2 [ADINAZOLAM] | > 30 µM | > 10 µM | > 10 µM | > 10 µM | > 10 µM | > 10 µM | > 10 µM | > 10 µM | –
3 | Cc1ccccc1-n1c(CF)nc2ccc(N)cc2c1=O [AFLOQUALONE] | > 30 µM | > 10 µM | > 10 µM | > 10 µM | > 30 µM | > 30 µM | > 30 µM | > 30 µM | –
4 | CCOC(=O)c1ccc(N)cc1 [BENZOCAINE] | > 30 µM | > 10 µM | > 10 µM | > 10 µM | > 10 µM | > 10 µM | > 10 µM | > 10 µM | –
5 | CC(C)(Oc1ccc(CCNC(=O)c2ccc(Cl)cc2)cc1)C(=O)O [BEZAFIBRATE] | > 30 µM | > 10 µM | > 30 µM | > 10 µM | > 10 µM | > 10 µM | > 10 µM | > 10 µM | > 30 µM
6 | C/C=C(/C(=C/C)c1ccc(O)cc1)c1ccc(O)cc1 [DIENESTROL] | > 30 µM | > 10 µM | > 10 µM | > 10 µM | > 10 µM | > 10 µM | > 10 µM | > 10 µM | –
7 | C[C@@H]1C[C@H]2[C@@H]3C[C@H](F)C4=CC(=O)C=C[C@]4(C)[C@@]3(F)[C@@H](O)C[C@]2(C)[C@@]1(OC(=O)c1ccco1)C(=O)SCF [FLUTICASONE FUROATE] | > 30 µM | > 10 µM | > 10 µM | > 10 µM | > 10 µM | > 10 µM | > 10 µM | > 10 µM | > 30 µM
8 | COc1ccc([C@@H]2CC(=O)c3c(O)cc(O)cc3O2)cc1O [HESPERETIN] | > 30 µM | > 10 µM | > 10 µM | > 10 µM | > 30 µM | > 10 µM | > 10 µM | > 30 µM | –
9 | CNCCc1ccc(OC(=O)C(C)C)c(OC(=O)C(C)C)c1 [IBOPAMINE] | > 30 µM | > 30 µM | > 30 µM | > 30 µM | > 30 µM | > 30 µM | > 30 µM | > 30 µM | > 30 µM
10 | CN(C)CCCN1c2ccccc2CCc2ccccc21 [IMIPRAMINE] | > 10 µM | 5 µM | > 10 µM | – | 0.0804 µM | > 30 µM | – | > 10 µM | > 30 µM
11 | CCC[C@@H]1C[C@@H](C(=O)N[C@@H]([C@H]2O[C@H](SC)[C@H](O)[C@@H](O)[C@H]2O)[C@@H](C)O)N(C)C1 [LINCOMYCIN] | > 30 µM | > 30 µM | > 10 µM | > 10 µM | > 10 µM | > 10 µM | > 10 µM | > 10 µM | > 30 µM
12 | C=C1c2cccc(O)c2C(=O)C2=C(O)[C@]3(O)C(=O)C(C(N)=O)=C(O)[C@@H](N(C)C)[C@@H]3[C@@H](O)[C@H]12 [METHACYCLINE] | > 30 µM | > 10 µM | > 10 µM | > 10 µM | > 10 µM | > 10 µM | > 30 µM | > 10 µM | –
13 | CN(Cc1cnc2nc(N)nc(N)c2n1)c1ccc(C(=O)N[C@@H](CCC(=O)O)C(=O)O)cc1 [METHOTREXATE] | > 30 µM | > 10 µM | > 10 µM | > 10 µM | > 10 µM | > 30 µM | > 10 µM | > 10 µM | > 30 µM
14 | Cc1ccccc1N1C(=O)c2cc(S(N)(=O)=O)c(Cl)cc2NC1C (centres undefined) [METOLAZONE] | > 30 µM | > 10 µM | > 10 µM | > 10 µM | > 10 µM | > 10 µM | > 10 µM | > 10 µM | –
15 | O=C(O)c1cccnc1Nc1cccc(C(F)(F)F)c1 [NIFLUMIC ACID] | > 30 µM | > 10 µM | > 10 µM | > 10 µM | > 10 µM | > 10 µM | > 10 µM | > 10 µM | –
16 | O=C1c2ccccc2C(=O)C1c1ccccc1 [PHENINDIONE] | > 30 µM | 18 µM | > 30 µM | > 10 µM | > 10 µM | > 10 µM | > 10 µM | > 10 µM | > 30 µM
17 | CN[C@@H](C)[C@@H](O)c1ccccc1 [PSEUDOEPHEDRINE] | > 30 µM | > 10 µM | > 10 µM | > 10 µM | > 10 µM | > 30 µM | > 10 µM | > 10 µM | –
18 | CCCN1CC(NS(=O)(=O)N(CC)CC)CC2Cc3c(O)cccc3CC21 (centres undefined) [QUINAGOLIDE] | > 30 µM | – | – | > 30 µM | 29 µM | > 30 µM | > 30 µM | > 30 µM | > 30 µM
19 | C[C@]12CCC(=O)C[C@@H]1CC[C@@H]1[C@@H]2CC[C@]2(C)[C@@H](O)CC[C@@H]12 [STANOLONE] | > 30 µM | > 30 µM | – | > 30 µM | > 30 µM | > 30 µM | > 30 µM | > 30 µM | –
20 | C[C@]12C=CC(=O)C=C1CC[C@@H]1[C@@H]2CC[C@]2(C)OC(=O)CC[C@@H]12 [TESTOLACTONE] | > 30 µM | > 30 µM | > 10 µM | > 10 µM | > 10 µM | > 10 µM | > 10 µM | > 10 µM | > 30 µM
